Measurements as given in US20230295087A1, “AGONISTS OF ROR GAMMAt” (BRISTOL-MYERS SQUIBB COMPANY, priority 2019, published 2023).

The compounds below were run against T1, human RORgT (Homo sapiens, UniProt P51449) (assay: RORgT Gal4 Luciferase Reporter Gene Assay). Conditions: engineered Jurkat cells overexpressing RORgT (LBD or full length) fused with Gal4 Luc reporter; 18 hours at 37° C.; luminescence.
T1 construct: expressed in transfected cells
T1 sequence (P51449 267-516): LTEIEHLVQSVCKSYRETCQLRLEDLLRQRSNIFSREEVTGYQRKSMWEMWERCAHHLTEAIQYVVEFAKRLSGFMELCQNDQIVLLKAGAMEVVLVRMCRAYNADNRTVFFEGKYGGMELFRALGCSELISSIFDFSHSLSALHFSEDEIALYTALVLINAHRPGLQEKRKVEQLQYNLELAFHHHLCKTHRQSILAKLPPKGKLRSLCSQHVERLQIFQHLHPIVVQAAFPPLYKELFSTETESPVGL
Format: cell-based
Description: RORgT Gal4 Luciferase Reporter Gene Assay
25 µL of cryopreserved Jurkat cells over expressing ligand binding domain (LBD) of RORgT (aa267-516, NM_005060) and Gal4 Luc, or full length of human RORgT and Gal4 Luc, were plated in 384-well solid white cell culture plates (PerkinElmer 6007899), with a density of 10,000 cells/well in RPMI 1640 cell culture media (Gibco 11875-085). The media contained 0.1% BSA, 10 mM HEPES (Gibco 15360-080), […] Sodium Pyruvate (Gibco 11360-040), […] Hygromycin B (Invitrogen 10687-010), and […] Blasticidin (Invitrogen R210-01).
100 nL of compound at varying concentrations in 3-fold serial dilution, with final concentrations ranging from 40 µM to 0.67 nM, were added to the cells using Labcyte Echo 550. The compound and the cells were incubated for 18 hours at 37° C. in a cell culture incubator. Cells were then lysed with 15 uL of Steady-Glo Luciferase Assay reagent (Promega EZ550), followed by centrifuging the assay plates at 1500 RPM for 1 minute. Subsequently, the plates were read on the Envision (PerkinElmer). The inhibition of constitutive activity of RORgT achieved by graded concentrations of compound was calculated as a percentage of the luminescence signal window reduction over a control compound.
Work on `O=C(CC1CCS(=O)(=O)C1)N1CC[C@@]2(S(=O)(=O)c3ccc(F)cc3)c3ccc(OCc4c(F)cccc4C(F)(F)F)cc3CC[C@@H]12` (mixture of isomers) [Example 17] yielded an EC50 of 8.2 nM. Compound `O=C(O)[C@H]1CC[C@H](C(=O)N2CC[C@@]3(S(=O)(=O)c4ccc(F)cc4)c4ccc(OCc5c(F)cccc5Cl)cc4CC[C@@H]23)CC1` [Example 1, (1r,4r)-4-[(3aR,9bR)-7-[(2-chloro-6-fluorophenyl)methoxy]-9b-(4-fluorobenzenesulfonyl)-1H,2H,3H,3aH,4H,5H,9bH-benzo[e]indole-3-carbonyl]cyclohexane-1-carboxylic acid] has an EC50 of 8.4 nM. With `O=C(O)[C@H]1CC[C@H](C(=O)N2CC[C@@]3(S(=O)(=O)c4ccc(F)cc4)c4ccc(CCc5c(Cl)cccc5Cl)cc4CC[C@@H]23)CC1` [Example 2, (1r,4r)-4-[(3aR,9bR)-7-[2-(2,6-dichlorophenyl)ethyl]-9b-(4-fluorobenzenesulfonyl)-1H,2H,3H,3aH,4H,5H,9bH-benzo[e]indole-3-carbonyl]cyclohexane-1-carboxylic acid] the EC50 was 6.8 nM. In the case of `O=C(O)[C@H]1CC[C@H](C(=O)N2CC[C@@]3(S(=O)(=O)c4ccc(F)cc4)c4ccc(Oc5c(F)cccc5C(F)(F)F)cc4CC[C@@H]23)CC1` [Example 4, (1R,4r)-4-((3aR,9bR)-7-(2-fluoro-6-(trifluoromethyl)phenoxy)-9b-((4-fluorophenyl)sulfonyl)-2,3,3a,4,5,9b-hexahydro-1H-benzo[e]indole-3-carbonyl)cyclohexane-1-carboxylic acid], the EC50 is reported as 10 nM. With `O=C(O)[C@H]1CC[C@H](C(=O)N2CC[C@@]3(S(=O)(=O)c4ccc(F)cc4)c4ccc(Cc5c(F)cccc5Cl)cc4CC[C@@H]23)CC1` [Example 5, (1R,4r)-4-((3aR,9bR)-7-(2-chloro-6-fluorobenzyl)-9b-((4-fluorophenyl)sulfonyl)-2,3,3a,4,5,9b-hexahydro-1H-benzo[e]indole-3-carbonyl)cyclohexanecarboxylic acid] the EC50 was 7.1 nM. `O=C(O)[C@H]1CC[C@H](C(=O)N2CC[C@@]3(S(=O)(=O)c4ccc(F)cc4)c4ccc(COc5c(Cl)cccc5Cl)cc4CC[C@@H]23)CC1` [Example 6, (1R,4r)-4-((3aR,9bR)-7-((2,6-dichlorophenoxy)methyl)-9b-((4-fluorophenyl)sulfonyl)-2,3,3a,4,5,9b-hexahydro-1H-benzo[e]indole-3-carbonyl)cyclohexanecarboxylic acid] was tested, and the EC50 was 2.4 nM. `CC1(C(=O)N2CC[C@@]3(S(=O)(=O)c4ccc(F)cc4)c4ccc(OCc5c(F)cccc5Cl)cc4CC[C@@H]23)CCS(=O)(=O)CC1` [Example 7, ((3aR,9bR)-7-((2-chloro-6-fluorobenzyl)oxy)-9b-((4-fluorophenyl)sulfonyl)-4,5-dihydro-1H-benzo[e]indol-3(2H,3aH,9bH)-yl)(4-methyl-1,1-dioxidotetrahydro-2H-thiopyran-4-yl)methanone] was tested, and the EC50 was 22 nM. Compound `C[C@]1(C(=O)N2CC[C@@]3(S(=O)(=O)c4ccc(F)cc4)c4ccc(OCc5c(F)cccc5Cl)cc4CC[C@@H]23)CC[C@H](C(=O)O)CC1` [Example 9, (1R,4r)-4-((3aR,9bR)-7-((2-chloro-6-fluorobenzyl)oxy)-9b-((4-fluorophenyl)sulfonyl)-2,3,3a,4,5,9b-hexahydro-1H-benzo[e]indole-3-carbonyl)-4-methylcyclohexanecarboxylic acid] has an EC50 of 17 nM. `O=C(O)[C@H]1CC[C@H](CN2CC[C@@]3(S(=O)(=O)c4ccc(F)cc4)c4ccc(OCc5c(F)cccc5C(F)(F)F)cc4CC[C@@H]23)CC1` [Example 10] gave an EC50 of 39 nM. `Cc1ccccc1Cc1ccc2c(c1)CC[C@H]1N(C(=O)[C@]3(C)CC[C@@H](C(=O)O)CC3)CC[C@@]21S(=O)(=O)c1ccc(F)cc1` [Example 12, (1R,4r)-4-((3aR,9bR)-9b-((4-fluorophenyl)sulfonyl)-7-(2-methylbenzyl)-2,3,3a,4,5,9b-hexahydro-1H-benzo[e]indole-3-carbonyl)-4-methylcyclohexane-1-carboxylic acid] showed an EC50 of 19 nM.
